“And” between values parts separate entries of the source, which are not always exact repeats. Equal values may be shown once. Read-outs that look alike come from different tables or passages of the source.
Columns and labels:
[1] = tested on: Akt phosphorylation induced by IGF-1R in HT-29 cells; test: Western blot analysis of Akt phosphorylation induced by IGF-1R; assay type: cell-based, Human; conditions: then IGF-1 10 ng/mL 10 min, HT-29
HT-29 = test: Cell Titer-Glo cell viability: HT-29; assay type: cell-based; conditions: Homo sapiens, HT-29, 72 h
Description: (§1) This assay quantitates the ATP present in order to determine the number of viable cells in culture. Briefly, the compounds were incubated with the cells for 72 h, followed by cell lysis. The resulting luminescent signal is proportional to the amount of ATP present and, therefore, directly proportional to the number of cells present in culture.
(§2) Compound nos. […] These cell lines are derived from human lung carcinoma, colon adenocarcinoma, colon adenocarcinoma, colon carcinoma, acute promyelocytic leukemia, colon adenocarcinoma, colon adenocarcinoma (from metastatic site lymph node), respectively.
(§3) Compounds 2b, 5, 6b and 10a were tested along with derivatives in viability assays as described above by Caliper LifeSciences Systems (Hanover, Md.), in A549, HCT-15, HCT-116, MCF-7, MDA-MB-231, OVCAR3, T47D, COLO205, HT-29, BT-20, HCC1187, HL-60, MDA-MB-175, SW-620, and UACC812 cells.

HL-60 = test: Cell Titer-Glo cell viability: HL-60; assay type: cell-based, human; conditions: Homo sapiens, HL-60, 72 h
Description: as §1, §2, §3

HCT-15 = test: Cell Titer-Glo cell viability: HCT-15; assay type: cell-based; conditions: Homo sapiens, HCT-15, 72 h, HCT15, colon carcinoma
Description: as §1, §2, §3

HCT-116 = test: Cell Titer-Glo cell viability: HCT-116; assay type: cell-based; conditions: Homo sapiens, HCT116, colon carcinoma
Description: as §1, §2, §3

SW-620 = test: Cell Titer-Glo cell viability: SW-620; assay type: cell-based; conditions: Homo sapiens, SW-620, 72 h, SW-620, metastatic colorectal cancer
Description: as §1, §2, §3

LNCaP = test: Cell Titer-Glo cell viability: LNCaP; assay type: cell-based; conditions: Homo sapiens
Description: (§4) Compound nos. […] This panel of cell lines includes an ER− breast carcinoma, primary breast ductal carcinoma, prostate adenocarcinoma, mammary adenocarcinoma, mammary ductal carcinoma, mammary ductal carcinoma, ovary adenocarcinoma, ER+ breast carcinoma, ER-HER2+ mammary ductal carcinoma and an ER+ mammary ductal carcinoma, respectively.
as §1

MCF-7 = test: Cell Titer-Glo cell viability: MCF-7; assay type: cell-based; conditions: Homo sapiens, MCF7, breast cancer
Description: as §4, §1, §3

T47D = test: Cell Titer-Glo cell viability: T47D; assay type: cell-based; conditions: Homo sapiens, breast cancer
Description: as §4, §1, §3

OVCAR-3 = test: Cell Titer-Glo cell viability: OVCAR-3; assay type: cell-based; conditions: Homo sapiens, OVCAR3, ovarian cancer
Description: as §4, §1, §3

UACC 812 = test: Cell Titer-Glo cell viability: UACC 812; assay type: cell-based; conditions: Homo sapiens
Description: as §4, §1, §3
The inhibitory effects of Compound 8a were tested in two cell lines.

HCC 1187 = test: Cell Titer-Glo cell viability: HCC 1187; assay type: cell-based; conditions: Homo sapiens
Description: as §4, §1, §3

IGF1R = IGF1R (Homo sapiens, UniProt P08069); test: In vitro IGF-1R enzymatic assay (ADP-Glo kinase assay); assay type: biochemical; parameters: purchased Millipore 14-802
Sequence of IGF1R (P08069 31-1367): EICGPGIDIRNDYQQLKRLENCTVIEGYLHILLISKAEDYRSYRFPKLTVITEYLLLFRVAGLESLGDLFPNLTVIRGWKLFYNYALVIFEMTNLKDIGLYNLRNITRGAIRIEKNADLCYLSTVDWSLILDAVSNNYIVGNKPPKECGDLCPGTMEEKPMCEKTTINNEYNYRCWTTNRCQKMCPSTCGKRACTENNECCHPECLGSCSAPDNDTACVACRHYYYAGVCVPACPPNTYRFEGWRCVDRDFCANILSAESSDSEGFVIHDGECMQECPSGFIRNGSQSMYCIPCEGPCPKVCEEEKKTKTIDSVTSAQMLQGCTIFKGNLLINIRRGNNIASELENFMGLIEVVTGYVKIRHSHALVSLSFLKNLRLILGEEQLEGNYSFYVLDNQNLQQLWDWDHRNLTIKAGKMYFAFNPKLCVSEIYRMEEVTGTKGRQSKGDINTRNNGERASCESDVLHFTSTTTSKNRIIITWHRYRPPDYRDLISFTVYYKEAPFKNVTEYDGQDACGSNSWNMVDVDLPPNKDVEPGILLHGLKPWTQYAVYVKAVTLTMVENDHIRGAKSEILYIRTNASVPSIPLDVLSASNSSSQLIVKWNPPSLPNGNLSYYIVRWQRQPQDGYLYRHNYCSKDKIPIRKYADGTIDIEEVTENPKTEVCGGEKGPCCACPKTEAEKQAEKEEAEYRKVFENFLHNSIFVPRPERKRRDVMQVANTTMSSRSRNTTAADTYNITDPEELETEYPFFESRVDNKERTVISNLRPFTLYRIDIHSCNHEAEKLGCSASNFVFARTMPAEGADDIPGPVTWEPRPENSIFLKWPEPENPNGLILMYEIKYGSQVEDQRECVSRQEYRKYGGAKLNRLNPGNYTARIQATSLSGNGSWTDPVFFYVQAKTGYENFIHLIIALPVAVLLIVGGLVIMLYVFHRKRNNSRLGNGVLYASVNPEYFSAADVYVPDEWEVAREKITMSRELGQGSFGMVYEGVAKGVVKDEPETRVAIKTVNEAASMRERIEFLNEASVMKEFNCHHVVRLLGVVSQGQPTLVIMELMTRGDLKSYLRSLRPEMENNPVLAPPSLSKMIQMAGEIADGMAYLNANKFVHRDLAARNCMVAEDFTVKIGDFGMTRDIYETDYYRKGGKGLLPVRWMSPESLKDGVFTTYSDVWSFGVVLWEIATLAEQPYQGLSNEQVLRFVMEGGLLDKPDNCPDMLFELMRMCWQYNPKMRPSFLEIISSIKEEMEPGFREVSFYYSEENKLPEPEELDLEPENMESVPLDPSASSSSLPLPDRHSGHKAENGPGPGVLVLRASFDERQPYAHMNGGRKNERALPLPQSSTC
Description: (§5) IC50 values of the compounds of the invention against IGF-1R and IR were measured in vitro using an ADP-Glo kinase assay Kit (Promega). […] Kinase reactions in both assays were conducted at 30° C. for 20 min with increasing concentrations of compounds of the invention.

NTRK2 (TRKB) = NTRK2 (TRKB) (Homo sapiens, UniProt Q16620); test: Caliper kinase profiling: NTRK2 (TRKB); conditions: for inhibition at 0.01 µM: read-out: Average % Inh @ 10 nM; for inhibition of TrkB in panel of 11 kinases: 0.01 μM
Sequence of NTRK2 (TRKB) (Q16620 32-822): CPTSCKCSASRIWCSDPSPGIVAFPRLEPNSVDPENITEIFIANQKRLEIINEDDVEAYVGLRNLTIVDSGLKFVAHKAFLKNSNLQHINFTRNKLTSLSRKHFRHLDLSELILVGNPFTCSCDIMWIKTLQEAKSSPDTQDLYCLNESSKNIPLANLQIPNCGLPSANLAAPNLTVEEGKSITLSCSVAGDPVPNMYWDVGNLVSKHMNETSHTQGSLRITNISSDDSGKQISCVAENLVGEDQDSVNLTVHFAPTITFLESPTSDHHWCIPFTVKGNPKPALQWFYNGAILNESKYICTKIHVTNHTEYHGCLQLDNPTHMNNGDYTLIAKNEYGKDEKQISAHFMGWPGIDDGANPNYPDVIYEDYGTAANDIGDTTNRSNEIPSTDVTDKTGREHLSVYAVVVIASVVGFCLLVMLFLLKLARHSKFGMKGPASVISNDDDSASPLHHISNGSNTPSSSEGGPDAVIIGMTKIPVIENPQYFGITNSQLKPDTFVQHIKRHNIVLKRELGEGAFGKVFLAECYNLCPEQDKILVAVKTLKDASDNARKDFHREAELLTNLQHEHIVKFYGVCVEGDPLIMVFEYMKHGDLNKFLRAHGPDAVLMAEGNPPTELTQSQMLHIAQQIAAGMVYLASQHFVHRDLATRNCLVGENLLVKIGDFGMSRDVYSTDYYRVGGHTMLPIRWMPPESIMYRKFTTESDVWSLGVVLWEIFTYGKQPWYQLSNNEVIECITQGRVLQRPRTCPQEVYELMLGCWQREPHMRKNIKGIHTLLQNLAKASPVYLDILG
Description: (§6) The compound was tested at concentrations of 1.0×10^−8 and 1.0×10^−9 M in the RapidKinase192™ panel in duplicate. […] The screening was performed using the Caliper EZReader2, a 4-sipper LabChip, and ProfilerPro Kinase Selectivity Assay Kits 1 and 2. The assay measures the conversion of a fluorescent peptide substrate to a phosphorylated product. Briefly, the reaction mixture was introduced through a capillary sipper onto the microfluidic chip, where the substrate and product were electrophoretically separated and detected by laser-induced fluorescence. The time-dependent fluorescence signal indicates the extent of the reaction.
(§7) The kinases tested were AurA, AurB, AurC, AXL, FAK2, IGF1R, InsR, Mer, MET, TrkB and TrkC.
(§8) The assays were conducted using the Caliper LabChip 3000 and a 12-sipper LabChip as described above.

TRKC (NTRK3) = TRKC (NTRK3) (Homo sapiens, UniProt Q16288); test: Caliper kinase profiling: TRKC (NTRK3); conditions: for inhibition at 0.01 µM: read-out: Average % Inh @ 10 nM; for inhibition of TrkC in panel of 11 kinases: 0.01 μM
Sequence of TRKC (NTRK3) (Q16288 32-839): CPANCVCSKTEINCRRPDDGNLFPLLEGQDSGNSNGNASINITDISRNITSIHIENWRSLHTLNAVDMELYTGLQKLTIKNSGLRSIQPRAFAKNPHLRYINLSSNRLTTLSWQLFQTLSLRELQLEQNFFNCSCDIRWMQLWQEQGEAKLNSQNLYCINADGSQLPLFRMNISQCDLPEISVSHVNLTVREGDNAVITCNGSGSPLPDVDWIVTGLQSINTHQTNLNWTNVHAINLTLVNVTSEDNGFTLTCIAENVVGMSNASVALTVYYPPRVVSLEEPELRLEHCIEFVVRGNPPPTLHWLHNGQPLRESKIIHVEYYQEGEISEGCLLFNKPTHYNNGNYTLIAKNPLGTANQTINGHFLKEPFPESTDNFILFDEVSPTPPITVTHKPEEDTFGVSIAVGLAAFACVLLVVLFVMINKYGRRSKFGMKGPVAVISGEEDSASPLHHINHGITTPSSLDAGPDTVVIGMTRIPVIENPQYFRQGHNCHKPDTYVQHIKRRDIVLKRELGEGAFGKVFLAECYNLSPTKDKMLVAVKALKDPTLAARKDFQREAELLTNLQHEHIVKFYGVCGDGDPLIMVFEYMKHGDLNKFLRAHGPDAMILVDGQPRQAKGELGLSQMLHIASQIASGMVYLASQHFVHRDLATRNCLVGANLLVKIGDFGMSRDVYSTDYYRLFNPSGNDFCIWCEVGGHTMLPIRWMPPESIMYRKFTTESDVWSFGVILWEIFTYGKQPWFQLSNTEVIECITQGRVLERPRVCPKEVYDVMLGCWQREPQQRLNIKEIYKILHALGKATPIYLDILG
Description: as §6, §7, §8

IR = biological target: T1, IR (Homo sapiens, UniProt P06213); test: In vitro IR enzymatic assay (ADP-Glo kinase assay); assay type: biochemical
T1 construct: purchased Millipore 14-803
T1 sequence (P06213 28-1382): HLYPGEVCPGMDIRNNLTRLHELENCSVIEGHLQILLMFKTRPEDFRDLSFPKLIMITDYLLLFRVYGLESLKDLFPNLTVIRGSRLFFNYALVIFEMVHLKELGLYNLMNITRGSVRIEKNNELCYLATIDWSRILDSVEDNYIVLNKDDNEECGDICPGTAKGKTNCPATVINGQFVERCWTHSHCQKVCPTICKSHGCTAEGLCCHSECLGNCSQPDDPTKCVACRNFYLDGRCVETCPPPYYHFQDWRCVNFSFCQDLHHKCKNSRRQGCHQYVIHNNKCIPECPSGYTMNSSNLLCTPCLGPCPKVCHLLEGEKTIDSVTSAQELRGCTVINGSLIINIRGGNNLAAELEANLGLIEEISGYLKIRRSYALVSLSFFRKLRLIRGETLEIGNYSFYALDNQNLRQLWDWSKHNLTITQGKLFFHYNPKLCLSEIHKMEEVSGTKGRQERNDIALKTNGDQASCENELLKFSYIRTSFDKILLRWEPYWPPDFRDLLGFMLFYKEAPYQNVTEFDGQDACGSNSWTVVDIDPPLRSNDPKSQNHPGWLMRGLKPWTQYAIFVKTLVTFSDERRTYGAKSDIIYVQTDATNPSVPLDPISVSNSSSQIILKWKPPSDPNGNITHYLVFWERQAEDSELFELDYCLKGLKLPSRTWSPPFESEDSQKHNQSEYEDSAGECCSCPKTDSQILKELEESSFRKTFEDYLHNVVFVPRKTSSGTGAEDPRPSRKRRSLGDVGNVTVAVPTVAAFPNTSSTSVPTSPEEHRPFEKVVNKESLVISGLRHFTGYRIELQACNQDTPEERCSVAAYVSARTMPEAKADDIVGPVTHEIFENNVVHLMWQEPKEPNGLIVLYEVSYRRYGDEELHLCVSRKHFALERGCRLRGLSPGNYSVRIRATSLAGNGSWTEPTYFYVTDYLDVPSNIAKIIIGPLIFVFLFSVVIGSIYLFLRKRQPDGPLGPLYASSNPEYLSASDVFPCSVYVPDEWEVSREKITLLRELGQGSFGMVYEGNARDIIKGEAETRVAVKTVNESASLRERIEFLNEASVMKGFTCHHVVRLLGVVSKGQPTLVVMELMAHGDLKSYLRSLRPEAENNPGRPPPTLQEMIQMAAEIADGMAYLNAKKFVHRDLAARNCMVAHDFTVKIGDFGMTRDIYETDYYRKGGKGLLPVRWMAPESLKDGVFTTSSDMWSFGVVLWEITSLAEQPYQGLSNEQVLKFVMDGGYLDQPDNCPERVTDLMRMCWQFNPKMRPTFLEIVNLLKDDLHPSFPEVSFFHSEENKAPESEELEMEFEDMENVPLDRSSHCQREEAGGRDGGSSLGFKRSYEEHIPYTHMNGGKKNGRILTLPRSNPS
Description: as §5

[2] = HL60, promyelocytic leukemia (second entry of the table), 72 h
[3] = HL-60, promyelocytic leukemia, 72 h
[4] = IGF-1R, ATP 100 μM, run N1, read-out: IC50 (M) N1
[5] = IGF-1R, ATP 100 μM, run N2, read-out: IC50 (M) N2
[6] = activated IGF-1R, read-out: IC50
[7] = HT-29, colon adenocarcinoma, 72 h incubation, Cell Titer-Glo
[8] = HL60, promyelocytic leukemia, 72 h incubation, Cell Titer-Glo
[9] = 72 h incubation, Cell Titer-Glo
[10] = Prostate cancer, 72 h incubation, Cell Titer-Glo
[11] = UACC 812, breast cancer, 72 h incubation, Cell Titer-Glo
[12] = HCC1187, HCC-1187, breast cancer, 72 h incubation, Cell Titer-Glo
[13] = read-out: Average % Inh @ 100 nM

| SMILES | phosphorylated AKT levels normalized to actin levels (pAKT/actin) ([1]; 1 nM compound 2 h) | phosphorylated AKT levels normalized to actin levels (pAKT/actin) ([1]; 10 nM compound 2 h) | phosphorylated AKT levels normalized to actin levels (pAKT/actin) ([1]; 100 nM compound 2 h) | IC50 (HT-29; HT-29, colon cancer, 72 h) [nM] | IC50 (HL-60; [2]) [nM] | IC50 (HL-60; [3]) [nM] | IC50 (HCT-15; 72 h) [nM] | IC50 (SW-620; 72 h) [nM] | Hill Slope N1 (IGF1R; IGF-1R, ATP 100 μM, run N1) | IC50 (IGF1R; [6]) | IC50 (IR; activated IR, read-out: IC50) | IC50 (HL-60; [8]) [nM] | IC50 (HCT-15; [9]) [nM] | IC50 (SW-620; [9]) [nM] | IC50 (LNCaP; [10]) [nM] | IC50 (MCF-7; [9]) [nM] | IC50 (T47D; [9]) [nM] | IC50 (OVCAR-3; [9]) [nM] | IC50 (UACC 812; [11]) [nM] | IC50 (HCC 1187; [12]) [nM] | other results |
| --- | --- | --- | --- | --- | --- | --- | --- | --- | --- | --- | --- | --- | --- | --- | --- | --- | --- | --- | --- | --- | --- |
| CC(C)c1cc(Nc2nc(N3CCCC3C(=O)Nc3ccc(F)nc3)nc3c2CCC3)n[nH]1 (single isomer, unassigned) [Compound 8b] | 0.31 | 0.04 | 0.02 | < 10 | < 10 | 10 | < 10000 | 1000 | 1.042 | 5.1e-09 M | – | – | – | – | – | – | – | – | – | – | IC50 (HT-29; HT29, colon adenocarcinoma (second entry of the table), 72 h): < 10 nM; IC50 (HCT-116; 72 h): 1000 nM; IC50 (LNCaP; prostate cancer, 72 h): < 10000 nM; IC50 (MCF-7; 72 h): < 10000 nM; IC50 (T47D; 72 h): < 1000 nM; IC50 (OVCAR-3; 72 h): 1000 nM; IC50 (UACC 812; UACC-812, UACC812, breast cancer, 72 h): < 10000 nM; IC50 (HCC 1187; HCC1187, breast cancer, 72 h): < 10000 nM; IC50 (IGF1R; [4]): 3.11e-09 M; Hill Slope N2 (IGF1R; IGF-1R, ATP 100 μM, run N2): 1.307; IC50 (IGF1R; [5]): 5.49e-09 M; IC50 (NTRK2 (TRKB)): 12.2 nM; inhibition at 0.001 µM (NTRK2 (TRKB); read-out: Average % Inh @ 1 nM): > 60%; inhibition at 0.01 µM (NTRK2 (TRKB)): > 60%; IC50 (TRKC (NTRK3)): 3 nM; inhibition at 0.001 µM (TRKC (NTRK3); read-out: Average % Inh @ 1 nM): > 60%; inhibition at 0.01 µM (TRKC (NTRK3)): > 60% |
| O=C(Nc1cnccn1)C1CCCN1c1nc2c(c(Nc3cc(C4CC4)[nH]n3)n1)CCC2 (single isomer, unassigned) [Compound 6b] | 0.18 | 0.00 | 0.00 | – | – | – | – | – | – | 6.5e-09 M | 4.13e-08 M | < 1000 | 1000 | < 1000 | 100 | < 1000 | < 1000 | < 100 | 1000 | < 1000 | phosphorylated AKT levels normalized to actin levels (pAKT/actin) ([1]; 0.1 nM compound 2 h): 0.87; IC50 (HT-29; [7]): < 10 nM; IC50 (HCT-116; [9]): < 1000 nM; inhibition of TrkB in panel of 11 kinases (NTRK2 (TRKB)): strongly inhibited; inhibition of TrkC in panel of 11 kinases (TRKC (NTRK3)): strongly inhibited |
| O=C(Nc1ccc(F)nc1)C1CCCN1c1nc2c(c(Nc3cc(C4CC4)[nH]n3)n1)CCC2 (single isomer, unassigned) [Compound 2b, 1-(4-(5-cyclopropyl-1H-pyrazol-3-ylamino)-6,7-dihydro-5H-cyclopenta[d]pyrimidin-2-yl)-N-(6-fluoropyridin-3-yl)pyrrolidine-2-carboxamide] | 0.80 | 0.22 | 0.03 | 500 | < 10 | < 10000 | < 10000 | 100 | 1.195 | 6.1e-09 M | 5.7e-09 M | < 1000 | 1000 | < 1000 | < 1000 | 1000 | 1000 | < 1000 | < 10000 | 100 | Hill Slope N1 (IR; IR, ATP 50 μM, run N1): 1.34; IC50 (IR; IR, ATP 50 μM, run N1, read-out: IC50 (M) N1): 5.51e-09 M; Hill Slope N2 (IR; IR, ATP 50 μM, run N2): 1.13; IC50 (IR; IR, ATP 50 μM, run N2, read-out: IC50 (M) N2): 4.07e-09 M; IC50 (IGF1R; [4]): 7.24e-09 M; Hill Slope N2 (IGF1R; IGF-1R, ATP 100 μM, run N2): 1.384; IC50 (IGF1R; [5]): 5.29e-09 M; inhibition at 0.01 µM (NTRK2 (TRKB)): > 60%; inhibition at 0.1 µM (NTRK2 (TRKB); [13]): > 60%; inhibition at 1 µM (NTRK2 (TRKB); read-out: Average % Inh @ 1 μM): > 60%; inhibition at 0.01 µM (TRKC (NTRK3)): > 60%; inhibition at 0.1 µM (TRKC (NTRK3); [13]): > 60%; inhibition at 1 µM (TRKC (NTRK3); read-out: Average % Inh @ 1 μM): > 60% |
| O=C(Nc1ccc(F)nc1)C1CCN1c1nc2c(c(Nc3cc(C4CC4)[nH]n3)n1)CCC2 (racemic) [Compound 5, 1-(4-(5-cyclopropyl-1H-pyrazol-3-ylamino)-6,7-dihydro-5H-cyclopenta[d]pyrimidin-2-yl)-N-(6-fluoropyridin-3-yl)azetidine-2-carboxamide] | 0.61 | 0.04 | 0.00 | – | – | – | – | – | – | 1.3e-08 M and 1.7e-08 M | 8.3e-09 M and 1.2e-08 M | < 100 | < 10000 | < 1000 | 100 | < 1000 | < 1000 | < 1000 | < 100000 | < 1000 | inhibition at 0.03 µM (IR; activated IR, 30 nM, average, read-out: % Inh @ 30 nM Avg): 76%; IC50 (HT-29; [7]): 10 nM; IC50 (HCT-116; [9]): < 10000 nM; inhibition at 0.03 µM (IGF1R; activated IGF-1R, 30 nM, average, read-out: % Inh @ 30 nM Avg): 66%; inhibition of TrkB in panel of 11 kinases (NTRK2 (TRKB)): strongly inhibited; inhibition of TrkC in panel of 11 kinases (TRKC (NTRK3)): strongly inhibited |

— patent publication US9422267B2, “Fused pyrimidine compounds and use thereof” (Medivation Technologies, Inc., priority 2012, dated 2016)
